Some results are limits rather than exact numbers.

The source of these data is patent publication US9562003B2, “Methods of using substituted tetracycline compounds to modulate RNA” (Paratek Pharmaceuticals, Inc., priority 2002, dated 2017).

In one data set the test system is mRNAs in J774.2 cells. Description: Affymetrix microarray: mRNAs up- or down-regulated by Compounds A and B in LPS-stimulated macrophages. In kind it is cell-based, murine. Particulars: 50 μg/ml compound + 100 ng/ml LPS, 24 hours, J774.2 only; for Numbers of mRNAs with levels significantly altered by both Compounds A and B, in the presence of LPS: Decreased: decreased at least 2-fold by both compounds; for Numbers of mRNAs with levels significantly altered by both Compounds A and B, in the presence of LPS: Increased: increased at least 2-fold by both compounds. Here is the method: (§1) Two murine macrophage cell lines were used: J774.2 (gift from Peter Lambert, Aston University, UK), and RAW 264.7 (ATCC item number TIB-71). Cells were harvested from nearly confluent culture flasks and seeded into 6 well plates at a density of 5×10^6 cells well^−1 in a volume of 3 ml Dulbecco's modified essential medium supplemented with 10% fetal calf serum. After 2 hours, cells were exposed to the following conditions:
5) 50 μg/ml Compound A+100 ng/ml LPS (J774 cells only)
6) 50 μg/ml Compound B+100 ng/ml LPS (J774 cells only)
(§2) The tetracycline compounds were added 1.5 hours post seeding, thirty minutes before the addition of LPS. The plates were incubated at 37° C. at 5% CO2 in a humidified incubator.
(§3) 24 hours after incubation under experimental conditions, media was removed from the wells, and total RNA was purified from each sample using QIAGEN RNeasy® Mini columns. The manipulations which were then performed on the total RNA samples were as outlined in The Affymetrix® GeneChip® Expression Analysis technical manual, sections 2, chapter 1, entitled Eukaryotic Target Preparation. Briefly, RNA was reverse transcribed into double stranded cDNA with an oligo dT primer containing a T7 promoter. The product was then purified by phenol:chloroform:isoamyl extraction and ethanol precipitation, and then used in an […] to synthesize biotin-labelled antisense cRNA (Affymetrix controls of B. subtilis genes excised from pBluescript plasmid with Xho I digestion were added at this stage to control for correct translation and biotin incorporation). The cRNA was then cleaned using QIAGEN RNeasy® Mini columns, and the resulting cRNA solution fragmented using metal-induced hydrolysis.
Samples were prepared for hybridization with the Affymetrix murine genome chips U74AV2 according to the directions in the Affymetrix® GeneChip® Expression Analysis technical manual, sections 2, chapters 3 and 4, entitled Eukaryotic Target Hybridization and Eukaryotic Arrays: Washing Staining and Scanning. Briefly, 15 ug Fragmented cRNA was mixed with Affymetrix hybridization controls, herring sperm DNA, BSA, and concentrated hybridization buffer, boiled for 5 minutes, centrifuged at 14000×g for 5 minutes to obtain a precipitated-free solution, and hybridized with the array for 16 hours. […]
For J774.2 cells stimulated by LPS, two lists were generated, one of mRNAs which were increased at lease 2-fold by Compounds A and/or B, and one of mRNAs which were decreased at least 2-fold by Compounds A and/or B. In the case of mRNAs which were increased, the mRNAs had to be statistically ‘Present’ in the samples which contained Compounds A and/or B (‘Present’ as determined by the Affymetrix microarray suite software).

The next data set can be described thus: in vitro. It is filed as cell-based. Conditions: African green monkey (COS-1) and Chinese hamster (CHO-K1). The method, then:
COS-1 and CHO-K1 cell suspensions were prepared, seeded into 96-well tissue culture treated black-walled microtiter plates (density determined by cell line), and incubated overnight at 37° C., in 5% CO2 and approximately 95% humidity. The following day, serial dilutions of drug were prepared under sterile conditions and transferred to cell plates. Cell/Drug plates were incubated under the above conditions for 24 hours. Following the incubation period, media/drug was aspirated and 50 μl of Resazurin (0.042 mg/ml in PBS w/Ca and Mg) was added. The plates were then incubated under the above conditions for 2 hours and then in the dark at room temperature for an additional 30 minutes. Fluorescence measurements were taken (excitation 535 nm, emission 590 nm). The IC50 (concentration of drug causing 50% growth inhibition) was then calculated.

Data set [1] relates to mRNAs in J774.2 and RAW264.7 cells. As to the kind of experiment: Affymetrix microarray: mRNAs up- or down-regulated by minocycline in murine macrophage cell lines. In kind it is cell-based. Conditions: 24 hours. Here is the method: as §1
1) control (J774 cells on two separate occasions, and RAW 264.7 cells)
2) 50 μg/ml minocycline (J774 cells on two separate occasions, and RAW 264.7 cells)
3) 100 ng/ml LPS (J774 cells on two separate occasions, and RAW 264.7 cells)
4) 50 μg/ml minocycline+100 ng/ml LPS (J774 cells on two separate occasions, and RAW 264.7 cells)
as §2
as §3, with “hydrolysis. […]” for “hydrolysis.”
For both J774.2 and RAW264.7 cells, two lists were generated, one of mRNAs which were increased at lease 2-fold by minocycline, and one of mRNAs which were decreased at least 2-fold by minocycline. In the case of mRNAs which were increased, the mRNAs had to be statistically ‘Present’ in the samples which contained minocycline (‘Present’ as determined by the Affymetrix microarray suite software). […]
For both J774.2 and RAW264.7 cells stimulated by LPS, two lists were generated, one of mRNAs which were increased at lease 2-fold by minocycline, and one of mRNAs which were decreased at least 2-fold by minocycline. In the case of mRNAs which were increased, the mRNAs had to be statistically ‘Present’ in the samples which contained minocycline (‘Present’ as determined by the Affymetrix microarray suite software).

With `CN(C)C1C(O)=C(C(N)=O)C(=O)[C@@]2(O)C(O)=C3C(=O)c4c(O)ccc(CNCC(C)(C)C)c4C[C@H]3C[C@@H]12` (stereo partly shown) [Compound A], in the data set on mRNAs in J774.2 cells, the “Numbers of mRNAs with levels significantly altered by both Compounds A and B, in the presence of LPS: Decreased” value is listed as 108; the “Numbers of mRNAs with levels significantly altered by both Compounds A and B, in the presence of LPS: Increased” value came out at 133.
In the data set “in vitro”, `C[C@H]1c2cccc(O)c2C(=O)C2=C(O)[C@]3(O)C(=O)C(C(N)=O)=C(O)[C@@H](N(C)C)[C@@H]3[C@@H](O)[C@@H]21` [doxycycline] had a half-maximal inhibitory concentration (IC50) at 24 h of over 25 µg/mL.
With `C[C@H]1c2ccc(N3CCCCC3)c(O)c2C(=O)C2=C(O)[C@]3(O)C(=O)C(C(N)=O)=C(O)C(N(C)C)[C@@H]3[C@@H](O)[C@@H]21` (stereo partly shown) [Compound B], in the data set with mRNAs in J774.2 cells, the “Numbers of mRNAs with levels significantly altered by both Compounds A and B, in the presence of LPS: Decreased” value is given as 108; the “Numbers of mRNAs with levels significantly altered by both Compounds A and B, in the presence of LPS: Increased” value is given as 133.
Consider `CN(C)c1ccc(O)c2c1C[C@H]1C[C@H]3[C@H](N(C)C)C(O)=C(C(N)=O)C(=O)[C@@]3(O)C(O)=C1C2=O` [minocycline], for which the half-inhibitory concentration (IC50) at 24 h in “in vitro” is over 25 µg/mL. Besides, the “Numbers of mRNAs with levels significantly altered by minocycline, in the presence of LPS: Decreased” value in data set [1] (50 μg/ml minocycline + 100 ng/ml LPS, decreased at least 2-fold, common to all three lists (J774.2 twice, RAW264.7)) is 9. Besides, the “Numbers of mRNAs with levels significantly altered by minocycline, in the presence of LPS: Increased” value in data set [1] (50 μg/ml minocycline + 100 ng/ml LPS, increased at least 2-fold, common to all three lists (J774.2 twice, RAW264.7)) is 28. In addition, the “Numbers of mRNAs with levels significantly altered by minocycline: Decreased” value in data set [1] (50 μg/ml minocycline, no LPS, decreased at least 2-fold, mRNAs common to all three lists (J774.2 twice, RAW264.7)) is listed as 4. Besides, in data set [1] (50 μg/ml minocycline, no LPS, increased at least 2-fold, mRNAs common to all three lists (J774.2 twice, RAW264.7)), the “Numbers of mRNAs with levels significantly altered by minocycline: Increased” value came out at 21.

Broadly, the IC50 is the concentration that gives 50% inhibition.
